According to patent publication US20070213359A1 (ACADIA Pharmaceuticals Inc., priority 2005, published 2007):
Like-named read-outs stand apart in the source and are kept apart here.

Target: Ghrelin receptor (Homo sapiens, UniProt Q92847)
Assay: Receptor Selection and Amplification Technology (R-SAT) assay
Assay type: cell-based
Parameters: expressed in transfected cells; host or cells: NIH3T3
Conditions: for Emax: read-out: RSAT Eff(%)
[1] = […], '—' not defined (nd used separately), read-out: RSAT pIC50 (converted)

Ghrelin receptor, sequence (Q92847 whole entry): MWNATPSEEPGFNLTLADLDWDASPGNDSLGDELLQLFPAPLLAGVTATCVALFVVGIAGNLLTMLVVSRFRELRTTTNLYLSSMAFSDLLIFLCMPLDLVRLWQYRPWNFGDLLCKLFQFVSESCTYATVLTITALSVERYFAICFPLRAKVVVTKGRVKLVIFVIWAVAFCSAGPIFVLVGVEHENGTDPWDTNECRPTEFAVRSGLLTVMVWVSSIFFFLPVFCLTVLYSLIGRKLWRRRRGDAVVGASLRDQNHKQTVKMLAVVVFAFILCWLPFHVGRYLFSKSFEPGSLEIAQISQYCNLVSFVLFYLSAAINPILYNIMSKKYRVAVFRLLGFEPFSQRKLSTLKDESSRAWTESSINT

SMILES	IC50 [1] [nM]	Emax [%]	RSAT Eff(%)	IC50 (RSAT pIC50) [nM]
COc1cccc2c(C(=O)NCc3cccc(Cl)c3)cn(CCCN3C4CCC3CC(CCc3ccc(Cl)cc3)C4)c12 (centres unmarked)	0.794	127	–	–
COc1cccc2c(C(=O)C3CC3)cn(CCCN3CCCN(CCc4ccccc4)CC3)c12	1.26	100	–	–
COc1cccc2c(C(=O)Cc3ccccc3)cn(CCCN3CCN(Cc4ccc(Cl)cc4Cl)CC3)c12	2	76	–	–
COc1cccc2c(C(=O)C3CC3)cn(CCCN3CCN(CCOc4ccccc4)CC3)c12	7.94	94	–	–
COc1cccc2c(C(=O)Cc3ccccc3)cn(CCCN3CCN(c4ncc(C(F)(F)F)cc4Cl)CC3)c12	7.94	95	–	–
COc1cccc2c(C(=O)NCc3cccc(C)c3)cn(CCCN3C4CCC3CC(CCc3ccccc3)C4)c12 (centres unmarked)	10	89	–	–
COc1cccc2c(C(=O)NCC(C)C)cn(CCCN3CCC4(CC3)CC(=O)c3ccccc3O4)c12	12.6	115	–	–
COc1cccc2c(C(=O)NCC(C)C)cn(CCCN3CCCN(Cc4ccccc4Cl)CC3)c12	15.8	100	–	–
COc1cccc2c(C(=O)NCC(C)C)cn(CCCN3C4CCC3CC(CCc3ccccc3)C4)c12 (centres unmarked)	15.8	86	–	–
COc1cccc2c(C(=O)c3ccccc3)cn(CCCN3C4CCC3CC(CCc3ccc(Cl)cc3)C4)c12 (centres unmarked)	15.8	94	–	–
COc1cccc2c(C(=O)C3CC3)cn(CCCNCCOc3ccccc3)c12	15.8	83	–	–
COc1cccc2c(C(=O)NCc3cccc(C)c3)cn(CCCN3CCC(c4nc(-c5ccncc5)no4)CC3)c12	15.8	121	–	–
COc1cccc2c(C(=O)NCc3cccc(Cl)c3)cn(CCCN3CCC(c4nc(-c5cccnc5)no4)CC3)c12	20	103	–	–
COc1cccc2c(C(=O)NCc3cccc(Cl)c3)cn(CCCN3CCCN(Cc4ccccc4Cl)CC3)c12	20	107	–	–
COc1cccc2c(C(=O)C3CC3)cn(CCCN3CCC(c4nc(-c5ccncc5)no4)CC3)c12	20	87	–	–
CC(=O)c1cn(CCCN2CCC(N3C(=O)Cc4ccccc43)CC2)c2c(C#N)cccc12	20	–	133	–
COc1cccc2c(C(=O)Cc3ccccc3)cn(CCCN3CCC(c4nc(-c5cccnc5)no4)CC3)c12	–	88	–	20
COc1cccc2c(C(=O)C3CC3)cn(CCCNC3Cc4ccccc4C3)c12	25.1	97	–	–
COc1cccc2c(C(=O)NCc3cccc(C)c3)cn(CCCN3C4CCC3CC(CCc3ccc(Cl)cc3)C4)c12 (centres unmarked)	25.1	77	–	–
COc1cccc2c(C(=O)Cc3ccccc3)cn(CCCN3CCC(c4nc(-c5ccncc5)no4)CC3)c12	25.1	137	–	–
COc1cccc2c(C(=O)c3ccccc3)cn(CCCN3CCC(c4nc(-c5ccncc5)no4)CC3)c12	25.1	98	–	–
COc1cccc2c(C(=O)NCC(C)C)cn(CCCN3CCN(Cc4ccc(Cl)cc4Cl)CC3)c12	25.1	105	–	–
COc1cccc2c(C(=O)NCC(C)C)cn(CCCNC3Cc4ccccc4C3)c12	31.6	102	–	–
COc1cccc2c(C(=O)NCC(C)C)cn(CCCN3CCN(c4ncc(C(F)(F)F)cc4Cl)CC3)c12	31.6	100	–	–
COc1cccc2c(C(=O)NCc3cccc(Cl)c3)cn(CCCN3CCC(c4nc(-c5ccncc5)no4)CC3)c12	31.6	105	–	–

SMILES	IC50 [1] [nM]	Emax [%]	RSAT Eff(%)	IC50 (RSAT pIC50) [nM]
COc1cccc2c(C(=O)NCc3cccc(C)c3)cn(CCCN3CCN(c4ncc(C(F)(F)F)cc4Cl)CC3)c12	39.8	80	–	–
COc1cccc2c(C(=O)C3CC3)cn(CCCN3CCC(c4nc(-c5cccnc5)no4)CC3)c12	39.8	96	–	–
COc1cccc2c(C(=O)c3ccccc3)cn(CCCN3CCC(c4nc(-c5cccnc5)no4)CC3)c12	39.8	80	–	–
COc1cccc2c(C(=O)C3CC3)cn(CCCN3CCC(N4C(=O)Cc5ccccc54)CC3)c12	39.8	–	110	–
COc1cccc2c(C(=O)NCc3cccc(Cl)c3)cn(CCCN3CCN(c4ncc(C(F)(F)F)cc4Cl)CC3)c12	39.8	107	–	–
CC(=O)c1cn(CCCN2CCC(c3nc(-c4cccnc4)no3)CC2)c2c(C#N)cccc12	50.1	77	–	–
COc1cccc2c(C(=O)Cc3ccccc3)cn(CCCNCCOc3ccccc3)c12	50.1	92	–	–
CC(=O)c1cn(CCCNCCOc2ccccc2)c2c(Br)cccc12	50.1	132	–	–
COc1cccc2c(C(=O)Cc3ccccc3)cn(CCCNC3Cc4ccccc4C3)c12	50.1	103	–	–
COc1cccc2c(C(=O)NCc3cccc(Cl)c3)cn(CCCN3CCC4(CC3)CC(=O)c3ccccc3O4)c12	63.1	7.8	–	–
COc1cccc2c(C(=O)NCC(C)C)cn(CCCN3CCC(c4nc(-c5cccnc5)no4)CC3)c12	63.1	93	–	–
COc1cccc2c(C(=O)NCC(C)C)cn(CCCN3C4CCC3CC(CCc3ccc(Cl)cc3)C4)c12 (centres unmarked)	63.1	85	–	–
COc1cccc2c(C(=O)c3ccccc3)cn(CCCN3CCCC(Cc4ccccc4Cl)C3)c12 (centres unmarked)	63.1	82	–	–
COc1cccc2c(C(=O)C3CC3)cn(CCCN3C4CCC3CC(Oc3ccc(F)cc3)C4)c12 (centres unmarked)	63.1	131	–	–
COc1cccc2c(C(=O)Cc3ccccc3)cn(CCCN3CCC4(CC3)CC(=O)c3ccccc3O4)c12	79.4	98	–	–
COc1cccc2c(C(=O)NCC(C)C)cn(CCCN3CCC(C(=O)c4ccccc4)CC3)c12	79.4	114	–	–
CC(=O)c1cn(CCCN2CCC(N3C(=O)Cc4ccccc43)CC2)c2c(Br)cccc12	100	–	60	–
COc1cccc2c(C(=O)NCc3cccc(C)c3)cn(CCCN3CCC(C(=O)c4ccccc4)CC3)c12	100	126	–	–
CCc1cccc2c(C(C)=O)cn(CCCN3CCC(N4C(=O)Cc5ccccc54)CC3)c12	100	–	147	–
CC(=O)c1cn(CCCN2CCCN(CCc3ccccc3)CC2)c2c(C)cccc12	100	102	–	–
CC(C)CC(=O)c1cn(CCCN2CCC(c3nc4c(s3)C=CCC4)CC2)c2ccccc12	126	108	–	–
COc1cccc2c(C(=O)NCC(C)C)cn(CCCN3CCN(CCOc4ccccc4)CC3)c12	126	118	–	–
CCc1cccc2c(C(C)=O)cn(CCCN3CCC4(CC3)CC(=O)c3ccccc3O4)c12	126	85	–	–
COc1cccc2c(C(=O)C3CC3)cn(CCCN3CCCC(Oc4ccc(Cl)cc4)C3)c12 (centres unmarked)	126	37	–	–
COc1cccc2c(C(=O)NCC(C)C)cn(CCCN3C4CCC3CC(CC(=O)c3ccc(Cl)cc3)C4)c12 (centres unmarked)	126	128	–	–

SMILES	IC50 [1] [nM]	Emax [%]	RSAT Eff(%)	IC50 (RSAT pIC50) [nM]
COc1cccc2c(C(=O)NCc3cccc(Cl)c3)cn(CCCN3CCC(Oc4ccccc4Cl)CC3)c12	126	125	–	–
COc1ccccc1C1CCN(CCCn2cc(C(=O)NCc3cccc(C)c3)c3cccc(OC)c32)CC1	126	127	–	–
COc1cccc2c(C(=O)NCc3cccc(C)c3)cn(CCCN3CCC4(CC3)CC(=O)c3ccccc3O4)c12	158	63	–	–
CC(=O)c1cn(CCCNC2Cc3ccccc3C2)c2c(C)cccc12	158	70	–	–
COc1cccc2c(C(=O)NCC(C)C)cn(CCCNCCOc3ccccc3)c12	158	118	–	–
COc1cccc2c(C(=O)C3CC3)cn(CCCN3C4CCC3CC(Oc3ccccc3Cl)C4)c12 (centres unmarked)	158	130	–	–
COc1cccc2c(C(C)=O)cn(CCCN3CCC(C#N)(c4ccccc4)CC3)c12	–	101	–	200
CC(=O)c1cn(CCCN2CCN(c3nc(-c4cccnc4)no3)CC2)c2c(C)cccc12	200	110	–	–
CCCCC[C@H]1C[C@H]2CC[C@@H](C1)N2CCCn1cc(C(=O)c2ccccc2)c2cccc(OC)c21	200	91	–	–
CCCCC[C@H]1C[C@H]2CC[C@@H](C1)N2CCCn1cc(C(=O)C2CC2)c2cccc(OC)c21	200	101	–	–
COc1cccc2c(C(=O)c3ccccc3)cn(CCCN3CCC4(CC3)CC(=O)c3ccccc3O4)c12	200	60	–	–
COc1ccc2c(C(C)=O)cn(CCCN3CCC(c4ccccc4OC)CC3)c2c1	251	72	–	–
COc1cccc2c(C(=O)c3ccccc3)cn(CCCN3C4CCC3CC(CC(=O)c3ccc(Cl)cc3)C4)c12 (centres unmarked)	251	143	–	–
COc1cccc2c(C(=O)C3CC3)cn(CCCN3CCC(CCOc4ccc(Cl)cc4)CC3)c12	316	89	–	–
COc1cccc2c(C(=O)NCc3cccc(Cl)c3)cn(CCCN3CCC(Oc4ccc(F)cc4)CC3)c12	316	106	–	–
CCCCC[C@H]1C[C@H]2CC[C@@H](C1)N2CCCn1cc(C(C)=O)c2cccc(Cl)c21	316	72	–	–
COc1cccc2c(C(=O)c3ccccc3)cn(CCCNC3Cc4ccccc4C3)c12	316	93	–	–
COc1cccc2c(C(=O)NCc3cccc(Cl)c3)cn(CCCN3C4CCC3CC(CC(=O)c3ccc(Cl)cc3)C4)c12 (centres unmarked)	316	76	–	–
COc1cccc2c(C(=O)NCc3cccc(C)c3)cn(CCCN3CCC(N4C(=O)Cc5ccccc54)CC3)c12	2000	–	43	–
CC(=O)c1cn(CCCN2CCC(N3C(=O)Cc4ccccc43)CC2)c2c(C)cccc12	12600	–	69	–
CC(=O)c1cn(CCCN2CCC(N3C(=O)Cc4ccccc43)CC2)c2c(Cl)cccc12	–	–	28	–
CC(=O)c1c(C)n(CCCN2CCC(N3C(=O)Cc4ccccc43)CC2)c2c(Br)cccc12	–	–	12	–
COc1cccc2c(C#N)cn(CCCN3CCC(N4C(=O)Cc5ccccc54)CC3)c12	–	–	33	–
